Source: patent US7326682B2 (priority 1998, dated 2008)
Structures can show the parent of a compound that is named as a salt.

Tested on: rat prostatic vas deferens

COC(=O)[C@@H]1[C@H]2C[C@H]3c4[nH]c5ccccc5c4CCN3C[C@@H]2CC[C@@H]1O [yohimbine, yohimbine hydrochloride]
effect on the evoked responses: no effect
